Values quoted from earlier work, collected in patent US10016426B2, “Pharmaceutical compositions for substituted quinazolinones” (Resverlogix Corp., priority 2011, dated 2018).

Tests used:
HDL-C level = conditions: subjects with low HDL-C; Rubins et al. (1999)
[1] = following oral administration; Gugler et al. (1975)

SMILES	increase in the HDL-C level (HDL-C level) [%]	reduction of the CHD risk (HDL-C level) [%]	intestinal absorption [1]
Cc1ccc(C)c(OCCCC(C)(C)C(=O)O)c1 [gemfibrozil]	6	22	
O=c1c(O)c(-c2ccc(O)c(O)c2)oc2cc(O)cc(O)c12 [quercetin]			less than 1%
